From BindingDB's records for doi:10.7270/Q2M32T6M (Vanderbilt Screening Center for GPCRs, Ion Channels and …, 2009)
pEC50: −log10 of the molar value.

Biological target: T1, Solute carrier family 12 member 5 (Homo sapiens, UniProt Q9H2X9)
T1 sequence (Q9H2X9 whole entry): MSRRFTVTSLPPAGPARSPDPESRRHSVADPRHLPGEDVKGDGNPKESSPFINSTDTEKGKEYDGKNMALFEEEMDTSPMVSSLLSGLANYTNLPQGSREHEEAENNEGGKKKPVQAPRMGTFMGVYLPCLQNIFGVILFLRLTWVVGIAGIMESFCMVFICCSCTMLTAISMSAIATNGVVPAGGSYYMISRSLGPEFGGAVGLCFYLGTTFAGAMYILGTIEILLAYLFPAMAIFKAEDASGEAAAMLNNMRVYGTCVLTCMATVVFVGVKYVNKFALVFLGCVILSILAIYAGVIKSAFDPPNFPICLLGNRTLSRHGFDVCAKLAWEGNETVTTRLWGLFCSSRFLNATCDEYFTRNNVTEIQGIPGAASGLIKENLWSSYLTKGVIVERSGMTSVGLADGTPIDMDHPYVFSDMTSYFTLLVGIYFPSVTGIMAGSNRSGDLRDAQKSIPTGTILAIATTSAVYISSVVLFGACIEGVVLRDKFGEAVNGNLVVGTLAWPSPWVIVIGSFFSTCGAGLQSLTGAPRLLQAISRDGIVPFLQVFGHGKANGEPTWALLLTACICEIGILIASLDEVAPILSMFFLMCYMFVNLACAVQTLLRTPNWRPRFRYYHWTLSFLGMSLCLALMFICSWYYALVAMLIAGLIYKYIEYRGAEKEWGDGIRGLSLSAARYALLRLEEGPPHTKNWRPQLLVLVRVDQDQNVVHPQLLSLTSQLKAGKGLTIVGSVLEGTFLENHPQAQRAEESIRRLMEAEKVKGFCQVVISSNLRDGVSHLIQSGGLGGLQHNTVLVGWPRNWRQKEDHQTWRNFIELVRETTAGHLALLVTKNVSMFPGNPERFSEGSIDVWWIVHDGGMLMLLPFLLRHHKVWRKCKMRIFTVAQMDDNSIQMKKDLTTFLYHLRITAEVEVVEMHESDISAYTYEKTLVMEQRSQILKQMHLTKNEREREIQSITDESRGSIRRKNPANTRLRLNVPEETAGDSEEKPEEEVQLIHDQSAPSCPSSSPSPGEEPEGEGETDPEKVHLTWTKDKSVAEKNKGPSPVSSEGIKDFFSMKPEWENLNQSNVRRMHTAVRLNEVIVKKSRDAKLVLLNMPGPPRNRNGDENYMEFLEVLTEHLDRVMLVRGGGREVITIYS
Assay: concentration-response of KCC2 transport modulators – cell-based, HEK293 KCC2, FluoZin-2 fluorescence, dose response (AID 1736)

[1] = inactive by the depositor's call

SMILES	pEC50	pEC50 [1]
Cc1ccc(-c2n[nH]c(=S)n2NC=CCc2ccccc2[N+](=O)[O-])cc1	5.89	
S=c1nc(-c2ccc3c(c2)CCO3)cc[nH]1		4.78
Cc1[nH]c2ccccc2c1Cc1n[nH]c(=S)n1C	4.50	
COc1cc(C=NN(C)c2ccccc2)ccc1O	5.56	
Cc1[nH]c2ccccc2c1Cc1nnc(S)o1	6.13	
O=c1[nH]c2c(s1)C(c1ccccc1)c1c(c(O)n(-c3ccccc3)c1O)S2 (configuration not stated)	7.34	
O=C(CSc1ccccc1C(=O)NCc1ccccc1)NC12CC3CC(CC(C3)C1)C2	5.19	
CC(C)N1C(=O)S/C(=C/c2ccccc2OCc2ccc(C(=O)O)cc2)C1=O	5.66	
CC1CCCCN1C(=O)CSc1nnc(-c2c[nH]c3ccccc23)o1 (configuration not stated)	4.82	
NC1=NC[C@@H](Cc2ccc(O)cc2)N1CCc1cc(C(F)(F)F)cc(C(F)(F)F)c1	4.42	
Cc1[nH][nH]c(=O)c1C(c1ccc(-c2ccc(Cl)c(Cl)c2)o1)c1c(C)[nH][nH]c1=O		3.89
Cc1ccc(C=NNC(=S)Nc2cccc(S(=O)(=O)N(C)C)c2)o1		4.78
O=C1OC(c2ccc(O)cc2)(c2ccc(O)cc2)c2ccccc21	5.74	
O=C(O)c1cc(-c2ccc(F)cc2F)ccc1O	5.49	
CCn1c(=O)n(CC)c2cc(S(=O)(=O)N3CCC(c4ccccc4)CC3)ccc21 [1,3-diethyl-5-(4-phenylpiperidin-1-yl)sulfonyl-benzimidazol-2-one]	4.88	
O=C(CSc1nnc(C2CC2)n1Cc1ccccc1)c1cc2ccccc2o1 [1-(1-benzofuran-2-yl)-2-[(4-benzyl-5-cyclopropyl-1,2,4-triazol-3-yl)sulfanyl]ethanone]	5.41	
O=C(CSc1nnc(CNc2ccccc2)o1)c1ccc2c(c1)OCCO2 [1-(2,3-Dihydro-benzo[1,4]dioxin-6-yl)-2-(5-phenylaminomethyl-[1,3,4]oxadiazol-2-ylsulfanyl)-ethanone]		5.68
O=C(CC(C(=O)N1CCc2ccccc21)n1ccnc1)N1CCc2ccccc2C1 (configuration not stated) [1-(2,3-dihydroindol-1-yl)-4-(3,4-dihydro-1H-isoquinolin-2-yl)-2-(1-imidazolyl)butane-1,4-dione]	3.95	
CC1Cc2ccccc2N1C(=O)CSc1nnc(CNc2ccccc2)o1 (configuration not stated) [1-(2-Methyl-2,3-dihydro-indol-1-yl)-2-(5-phenylaminomethyl-[1,3,4]oxadiazol-2-ylsulfanyl)-ethanone]	6.86	
S=C(NCc1ccccc1Cl)Nc1ccccc1Cl [1-(2-chlorobenzyl)-3-(2-chlorophenyl)thiourea]	5.24	
S=C(Nc1ccccn1)Nc1ccccc1Cl [1-(2-chlorophenyl)-3-(2-pyridinyl)thiourea]		5.71
Cc1nc2cc(C(F)(F)F)ccc2n1C1CCN(Cc2nnnn2Cc2ccc3c(c2)OCO3)CC1 [1-[1-(1-Benzo[1,3]dioxol-5-ylmethyl-1H-tetrazol-5-ylmethyl)-piperidin-4-yl]-2-methyl-5-trifluoromethyl-1H-benzoimidazole]	5.48	

Other lines, results leading:

pEC50	pEC50 [1]	SMILES
4.89		CSc1ccccc1N=C(S)Nc1ccc(S(N)(=O)=O)cc1 [1-(2-methylsulfanylphenyl)-3-(4-sulfamoylphenyl)thiourea]
5.21		C=CCn1c(Cc2cccs2)nnc1SCC(=O)c1ccc2ccccc2c1 [1-(2-naphthalenyl)-2-[[4-prop-2-enyl-5-(thiophen-2-ylmethyl)-1,2,4-triazol-3-yl]thio]ethanone]
	4.83	Cc1nc(SCC(=O)N2CCc3ccccc3C2)c2c(C)c(C)sc2n1 [1-(3,4-Dihydro-1H-isoquinolin-2-yl)-2-(2,5,6-trimethyl-thieno[2,3-d]pyrimidin-4-ylsulfanyl)-ethanone]
5.25		O=C(CSc1nnc(-c2ccc(O)cc2)n1Cc1ccco1)N1CCc2ccccc2C1 [1-(3,4-Dihydro-1H-isoquinolin-2-yl)-2-[4-furan-2-ylmethyl-5-(4-hydroxy-phenyl)-4H-[1,2,4]triazol-3-ylsulfanyl]-ethanone]
2.76		O=C(CSc1nnc(CNc2ccccc2)o1)N1CCCc2ccccc21 [1-(3,4-Dihydro-2H-quinolin-1-yl)-2-(5-phenylaminomethyl-[1,3,4]oxadiazol-2-ylsulfanyl)-ethanone]
5.43		Cc1oc(-c2ccccc2)nc1C[S+]([O-])CC(=O)N1CCc2ccccc2C1 (configuration not stated) [1-(3,4-dihydro-1H-isoquinolin-2-yl)-2-[(5-methyl-2-phenyl-1,3-oxazol-4-yl)methylsulfinyl]ethanone]
	4.66	Cc1ccccc1-c1nc(CS(=O)(=O)CC(=O)N2CCc3ccccc3C2)c(C)o1 [1-(3,4-dihydro-1H-isoquinolin-2-yl)-2-[[5-methyl-2-(2-methylphenyl)-1,3-oxazol-4-yl]methylsulfonyl]ethanone]
4.86		Cc1cccc(-c2nc(C[S+]([O-])CC(=O)N3CCc4ccccc4C3)c(C)o2)c1 (configuration not stated) [1-(3,4-dihydro-1H-isoquinolin-2-yl)-2-[[5-methyl-2-(3-methylphenyl)-1,3-oxazol-4-yl]methylsulfinyl]ethanone]
5.07		Cn1cc(C(=O)C(=O)N2CCCc3ccccc32)c2ccccc21 [1-(3,4-dihydro-2H-quinolin-1-yl)-2-(1-methyl-3-indolyl)ethane-1,2-dione]
4.87		O=C(CSc1ccc(-c2ccccc2)nn1)N1CCCc2ccccc21 [1-(3,4-dihydro-2H-quinolin-1-yl)-2-(6-phenylpyridazin-3-yl)sulfanyl-ethanone]
5.08		S=C(NN=Cc1cccc2ccccc12)Nc1cccc(Cl)c1 [1-(3-chlorophenyl)-3-(1-naphthalenylmethylideneamino)thiourea]
5.12		O=C(c1ccc(N2CCCCCC2)c([N+](=O)[O-])c1)N1CCc2ccccc21 [1-(4-azepan-1-yl-3-nitrobenzoyl)indoline]
3.33		Cc1c(C(=O)NCCSCc2ccc(F)cc2)cnn1-c1ccc(Cl)cc1 [1-(4-chlorophenyl)-N-[2-[(4-fluorobenzyl)thio]ethyl]-5-methyl-pyrazole-4-carboxamide]
5.54		O=C(CSc1nnc(Cc2ccccc2)o1)c1ccc(F)cc1 [1-(4-fluorophenyl)-2-[[5-(phenylmethyl)-1,3,4-oxadiazol-2-yl]sulfanyl]ethanone]
4.85		COc1ccc(N2C(=S)N=C(Nc3cccc(C)c3)C23CCCCC3)cc1 [1-(4-methoxyphenyl)-4-(3-methylanilino)-1,3-diazaspiro[4.5]dec-3-ene-2-thione]
	5.09	Cc1ccc(C(=O)CSc2nnc(COc3cccc4cccnc34)o2)cc1 [1-(4-methylphenyl)-2-[[5-(8-quinolinyloxymethyl)-1,3,4-oxadiazol-2-yl]thio]ethanone]
5.91		Cc1ccc(S(=O)(=O)N2CCC(=O)N(C(COCc3ccccc3)Cc3ccccc3)CC2)cc1 (configuration not stated) [1-(4-methylphenyl)sulfonyl-4-(1-phenyl-3-phenylmethoxy-propan-2-yl)-1,4-diazepan-5-one]
5.92		S=C(NCc1cccnc1)Nc1ccc(Oc2ccccc2)cc1 [1-(4-phenoxyphenyl)-3-(3-pyridinylmethyl)thiourea]
5.37		Cc1cccc(Nc2nnc(SCC(=O)c3ccc(Br)s3)s2)c1C [1-(5-bromanylthiophen-2-yl)-2-[[5-[(2,3-dimethylphenyl)amino]-1,3,4-thiadiazol-2-yl]sulfanyl]ethanone]
5.91		Cc1ccc(Nc2nnc(SCC(=O)c3ccc(Br)s3)s2)c(C)c1 [1-(5-bromanylthiophen-2-yl)-2-[[5-[(2,4-dimethylphenyl)amino]-1,3,4-thiadiazol-2-yl]sulfanyl]ethanone]
4.64		Cc1noc(C)c1S(=O)(=O)N1CCC(C(=O)N2CCN(c3ccc(F)cc3)CC2)CC1 [1-({1-[(3,5-dimethylisoxazol-4-yl)sulfonyl]piperidin-4-yl}carbonyl)-4-(4-fluorophenyl)piperazine]
5.77		O=S(=O)(NCc1ccccc1)c1ccc(Cl)c(S(=O)(=O)NCc2ccccc2)c1 [1-N,3-N-dibenzyl-4-chlorobenzene-1,3-disulfonamide]
4.78		CC(C)(CN=C(S)NCCc1ccccc1)CN=C(S)NCCc1ccccc1 [1-[2,2-dimethyl-3-(2-phenylethylcarbamothioylamino)propyl]-3-(2-phenylethyl)thiourea]
4.97		CCOC(=O)c1cc2c(ccn2C)n1CC(=O)N1CCC(Cc2ccccc2)CC1 [1-[2-(4-Benzyl-piperidin-1-yl)-2-oxo-ethyl]-4-methyl-1,4-dihydro-pyrrolo[3,2-b]pyrrole-2-carboxylic acid ethyl ester]
6.12		Cc1ccc2oc(-c3ccc(C)c(NC(=S)NC(=O)c4cccs4)c3)nc2c1 [1-[2-Methyl-5-(5-methyl-benzooxazol-2-yl)-phenyl]-3-(thiophene-2-carbonyl)-thiourea]
